Data published in patent publication US20230293438A1, “INJECTABLE DRUG-RELEASING MICROPOROUS ANNEALED PARTICLE SCAFFOLDS FOR TREATING MYOCARDIAL INFARCTION” (THE REGENTS OF THE UNIVERSITY OF CALIFORNIA, priority 2020, published 2023).

Legend:
[1] = test system: Human umbilical vein endothelial cells (HUVECs); assay: Endothelial cell proliferation (MTS assay); type: cell-based
Protocol: The drug effects on EC proliferation and network formation were evaluated. Human umbilical vein endothelial cells (HUVECs) were seeded on 0.1% gelatin-coated 24-well plates with a density of 5, 000 cells/cm^2 and cultured overnight in DMEM containing 10% FBS and 1% P/S. On the next day, the culture medium was replaced by the fresh medium containing F and R at the determined concentrations and combinations, and the medium was changed every other day. MTS cell proliferation assay was performed on day 1, 3 and 5. In addition, the ECs network formation was examined on growth factor reduced Matrigel according to the manufacturer's instructions (cat# CB-40230C, Thermo Fisher Scientific). Briefly, 24-well plates were coated with Matrigel. ECs were digested and plated onto a layer of Matrigel at a density of 3×10^5 cells/well in M199 medium containing 1% FBS and […], with the addition of F and R. Vascular endothelial growth factor (VEGF, 20 ng/mL) was used as a positive control. After 16 hours of culture, cells were stained with calcein acetoxymethyl ester (calcein-AM) and observed with an inverted fluorescent microscope. The number of tubular structures, junctions and meshes were analyzed by Image J with the Angiogenesis Analyzer plugin (n = 4-6 per group).

[2] = test system: neonatal rat cardiomyocytes; assay: Cardiomyocyte viability (live/dead assay); type: cell-based; conditions: 120 h, after 5 days in vitro culture, drugs in medium (20 µM), control cells 25 %
Protocol: (§1) Cell isolation: Primary neonatal rat cardiomyocytes and fibroblasts were isolated from the hearts of 1-2 day old Sprague-Dawley rat pups as described previously with minor modifications. Briefly, the cardiac tissue was minced and digested with 80 units/mL collagenase II (Worthington) and 0.8 mg/mL pancreatin (Sigma) at 37° C. in a water bath. Neonatal calf serum (NCS) was applied to inactivate enzymatic activity in the digested cell mixture. The cell solution was filtered through 100 µm mesh and centrifuged at 2200 rpm for 3 minutes. The cell pellets were suspended in 1 mL NCS and further separated by Percoll density gradient centrifugation. […]
Cell culture and evaluation of drug effects in vitro: The drug effects on cardiomyocyte viability and proliferation were evaluated. Isolated cardiomyocytes were calculated and seeded on 0.1% gelatin-coated twenty-four well tissue culture plate with a density of 20, 000 cells/cm^2, and cultured at 37° C. in a humidified, 5% CO2 incubator overnight in DMEM/Medium 199 (4/1) containing 10% FBS, 1% NEAAs and 1% P/S. The next day, the culture medium was replaced by fresh medium containing 20 µM F, R or their combination. […] A live/dead kit (Invitrogen) was for cell viability assay, and images were taken using inverted microscope fluorescence microscopy (Zeiss Axio Observer Z1) to determine the cell numbers and the percentage of dead cells. […]

[3] = test system: neonatal cardiomyocytes; assay: Cardiomyocyte proliferation (EdU assay); type: cell-based, rat; conditions: drugs in medium
Protocol: Cell isolation: Primary neonatal rat cardiomyocytes and fibroblasts were isolated from the hearts of 1-2 day old Sprague-Dawley rat pups as described previously with minor modifications. Briefly, the cardiac tissue was minced and digested with 80 units/mL collagenase II (Worthington) and 0.8 mg/mL pancreatin (Sigma) at 37° C. in a water bath. Neonatal calf serum (NCS) was applied to inactivate enzymatic activity in the digested cell mixture. The cell solution was filtered through 100 µm mesh and centrifuged at 2200 rpm for 3 minutes. The cell pellets were suspended in 1 mL NCS and further separated by Percoll density gradient centrifugation. […] Cell culture and evaluation of drug effects in vitro: The drug effects on cardiomyocyte viability and proliferation were evaluated. Isolated cardiomyocytes were calculated and seeded on 0.1% gelatin-coated twenty-four well tissue culture plate with a density of 20, 000 cells/cm^2, and cultured at 37° C. in a humidified, 5% CO2 incubator overnight in DMEM/Medium 199 (4/1) containing 10% FBS, 1% NEAAs and 1% P/S. […] A live/dead kit (Invitrogen) was for cell viability assay, and images were taken using inverted microscope fluorescence microscopy (Zeiss Axio Observer Z1) to determine the cell numbers and the percentage of dead cells. […]

[4] = test system: Human umbilical vein endothelial cells (HUVECs); assay: Endothelial cell tubule network formation on Matrigel; type: cell-based; conditions: drugs in medium, 16 hours
Protocol: The drug effects on EC proliferation and network formation were evaluated. Human umbilical vein endothelial cells (HUVECs) were seeded on 0.1% gelatin-coated 24-well plates with a density of 5, 000 cells/cm^2 and cultured overnight in DMEM containing 10% FBS and 1% P/S. On the next day, the culture medium was replaced by the fresh medium containing F and R at the determined concentrations and combinations, and the medium was changed every other day. MTS cell proliferation assay was performed on day 1, 3 and 5. In addition, the ECs network formation was examined on growth factor reduced Matrigel according to the manufacturer’s instructions (cat# CB-40230C, Thermo Fisher Scientific). Briefly, 24-well plates were coated with Matrigel. ECs were digested and plated onto a layer of Matrigel at a density of 3×10^5 cells/well in M199 medium containing 1% FBS and 1% P/S, with the addition of F and R. Vascular endothelial growth factor (VEGF, 20 ng/mL) was used as a positive control. After 16 hours of culture, cells were stained with calcein acetoxymethyl ester (calcein-AM) and observed with an inverted fluorescent microscope. The number of tubular structures, junctions and meshes were analyzed by Image J with the Angiogenesis Analyzer plugin (n = 4-6 per group).
(§2) The effects of drugs released from FR/NPs and FR/NPs-µGel particles 12 were evaluated using the methods mentioned above. […]

[5] = test system: cardiac fibroblasts; assay: Cardiac fibroblast proliferation (MTS assay); type: cell-based, rat; conditions: drugs in medium
Protocol: Cell isolation: Primary neonatal rat cardiomyocytes and fibroblasts were isolated from the hearts of 1-2 day old Sprague-Dawley rat pups as described previously with minor modifications. Briefly, the cardiac tissue was minced and digested with 80 units/mL collagenase II (Worthington) and 0.8 mg/mL pancreatin (Sigma) at 37° C. in a water bath. Neonatal calf serum (NCS) was applied to inactivate enzymatic activity in the digested cell mixture. The cell solution was filtered through 100 µm mesh and centrifuged at 2200 rpm for 3 minutes. The cell pellets were suspended in 1 mL NCS and further separated by Percoll density gradient centrifugation. A two-layer density gradient was formed consisting of 40.5% Percoll (GE17-0891-01, Sigma) solution in the top layer and 58.5% Percoll solution in the bottom layer. The cell suspension was layered on top of the gradient and centrifuged at 3000 rpm at room temperature for 30 minutes. […] The drug effects on cardiac fibroblast proliferation and myo-differentiation were evaluated. Fibroblasts were seeded on twenty-four well tissue culture plate with a density of 5000 cells/cm^2 and cultured overnight in DMEM containing 10% FBS and 1% P/S. On the next day, the culture medium was replaced by the fresh medium containing F and R at the determined concentrations and combinations, and the medium was changed every other day. […]

[6] = test system: neonatal cardiac fibroblasts; assay: Cardiac fibroblast myo-differentiation (α-SMA / F-actin staining); type: cell-based, rat; conditions: drugs in medium, day 5
Protocol: as §1, with “centrifugation. A two-layer density gradient was formed consisting of 40.5% Percoll (GE17-0891-01, Sigma) solution in the top layer and 58.5% Percoll solution in the bottom layer.” for “centrifugation.”
The drug effects on cardiac fibroblast proliferation and myo-differentiation were evaluated. Fibroblasts were seeded on twenty-four well tissue culture plate with a density of 5000 cells/cm^2 and cultured overnight in DMEM containing 10% FBS and 1% P/S. On the next day, the culture medium was replaced by the fresh medium containing F and R at the determined concentrations and combinations, and the medium was changed every other day. […]
as §2

Compound | optimal concentration to enhance EC proliferation [1] | viability at 20 µM [2] | proliferation of neonatal cardiomyocytes, times as many cells as the control [3] | EC proliferation ([1]; drugs in medium) | EC network formation [4] | fibroblast proliferation [5] | myo-differentiation of cardiac fibroblasts [6]
C=C[C@@]1(C)CC(=O)[C@]2(O)[C@@]3(C)[C@@H](O)CCC(C)(C)[C@@H]3[C@H](O)[C@H](OC(C)=O)[C@@]2(C)O1 [F, Forskolin] | 20 µM | 80% |  |  |  |  | 
Cc1cccc(-c2n[nH]cc2-c2ccc3ncccc3n2)n1 [R, 2-(3-(6-Methylpyridine-2-yl)-1H-pyrazol-4-yl)-1,5-naphthyridine] | 20 µM | 80% | six | dose-dependent effects to enhance EC proliferation | not with R alone | opposite inhibitory effects | could prevent myo-differentiation of cardiac fibroblasts
